According to article PMC12016938, “A small molecule PKCε inhibitor reduces hyperalgesia induced by paclitaxel or opioid withdrawal” (JCI Insight, 2025):
Values joined by “and” are separate entries in the source; they are usually repeats but may differ in a detail not shown here. Equal entries are not always repeated. Where two headings read alike, the source gives them in different places.

Legend:
[1] = target: T1, CLK4 (Homo sapiens, UniProt Q9HAZ1); assay: scanMax kinome panel, CLK4; format: binding; settings: 200 nM CP612; read-out: scanMax % of control, CLK4
T1 construct: purchased Eurofins-DiscoverX
Method: CP612 was screened for kinome specificity at 200 nM against 468 kinases using the scanMax assay panel from Eurofins-DiscoverX. CP612 inhibited 10 other WT kinases besides PKCε, all to < 10% of control: CLK1 (CDC Like Kinase 1), CLK4, PKN1 (Protein kinase N1), PKN2, PKCδ, PKCη, PKCθ, PRKG2 (Protein Kinase CGMP-Dependent 2), ROCK1, and ROCK2.

[2] = Pharmacokinetic studies in rats (plasma and brain); format: in vivo; settings: for Kp at 2 h / Kp at 24 h / concentration at 2 h / concentration at 24 h / Plasma concentration / Brain/Plasma / Plasma 2h/24h: rat; for concentration at 2 h / concentration at 24 h: read-out: Brain concentration
Method: Because binding to plasma protein was approximately 90%, we predicted that the free concentration at each time point was 10 times lower than the measured plasma concentration.
Pharmacokinetic studies in rats. Pharmacokinetics studies were contracted to the Drug Metabolism and Pharmacokinetics Core at Scripps Research. CP612 was dissolved at in 10% Tween-80/90% water and administered at 40 mg/kg/5 mL. Six rats were injected i.v. and 6 were injected i.p. Three rats were used to collect a full plasma time course from 5 minutes to 24 hours after dose. Then, brains were collected from these rats at 24 hours and from 3 additional rats at 2 hours after administration of compound. One rat receiving i.p. administration of CP612 was excluded as it had low/nondetectable levels indicating missed i.p. injection in that rat. Plasma samples were diluted 10-fold in blank plasma. Each brain was disrupted in potassium phosphate buffer (pH 7.4; 9 μL per 1mg tissue) on ice using brief sonication pulses. CP612 was detected with an API Triple Quad 5500 LC-MS/MS (SCIEX) using an MRM(+) method: CP612 (463/282, m/z) with carbamazepine (238/195.1, m/z) as an internal standard.

[3] = i.p. 40 mg/kg, 2h, individual rat, 40 mg/kg
[4] = i.p. 40 mg/kg, 24h, individual rat, 40 mg/kg
[5] = i.v. 40 mg/kg, 2h, individual rat, 40 mg/kg

T1 sequence (Q9HAZ1 whole entry): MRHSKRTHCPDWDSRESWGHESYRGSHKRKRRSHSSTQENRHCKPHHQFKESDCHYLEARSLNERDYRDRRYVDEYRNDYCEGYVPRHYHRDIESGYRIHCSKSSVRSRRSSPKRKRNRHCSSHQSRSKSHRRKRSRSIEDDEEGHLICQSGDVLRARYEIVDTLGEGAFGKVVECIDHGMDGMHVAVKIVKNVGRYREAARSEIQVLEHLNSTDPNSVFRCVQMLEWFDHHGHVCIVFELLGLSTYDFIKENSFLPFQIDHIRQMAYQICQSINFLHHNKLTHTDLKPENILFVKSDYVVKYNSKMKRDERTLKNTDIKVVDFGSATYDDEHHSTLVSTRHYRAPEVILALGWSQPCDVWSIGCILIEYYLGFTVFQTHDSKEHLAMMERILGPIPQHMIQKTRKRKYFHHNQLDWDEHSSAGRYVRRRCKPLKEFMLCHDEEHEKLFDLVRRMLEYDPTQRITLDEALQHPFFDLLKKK

In the case of `N[C@H](CNC(=O)C1(c2ccc(Cl)cc2)CCCC1)c1ccc(C(=O)Nc2ccncc2)cc1` [CP612], the remaining binding at 0.2 µM [1] is reported as < 10%, the “Brain level between 2 hours and 24 hours” value ([2]; 40 mg/kg i.p.) is reported as “remained stable” and the “Decrease of plasma level between 2 hours and 24 hours” value ([2]; 40 mg/kg i.p.) is reported as “about 30 fold”. The “Decrease of brain level between 2 hours and 24 hours” value ([2]; 40 mg/kg i.v.) was “less than 2 fold”, the “Decrease of plasma level between 2 hours and 24 hours” value ([2]; 40 mg/kg i.v.) was “about 70 fold” and the “Predicted free concentration relative to measured plasma concentration” value ([2]; from approx. 90% plasma protein binding) was 10 times lower. For the same molecule, the Kp at 2 h ([2]; brain, ip, 40 mg/kg, 40 mg/kg i.p., 2 hours, read-out: Brain/plasma concentration ratio) was 0.03 ± 0.009, the Kp at 24 h ([2]; brain, ip, 40 mg/kg, 40 mg/kg i.p., 24 hours, read-out: Brain/plasma concentration ratio) was 1.18 ± 0.42 and the concentration at 2 h ([2]; brain, ip, 40 mg/kg, i.p. 40 mg/kg, 2h, mean all rats) was 494 nM. The Kp at 2 h ([2]; brain, ip, 40 mg/kg, i.p. 40 mg/kg, 2h, mean all rats, read-out: Brain/Plasma) was 0.0312, the concentration at 2 h ([2]; brain, ip, 40 mg/kg, i.p. 40 mg/kg, 2h, mean of Plasma 2h, Brain 2h rats) was 494 nM and the Kp at 2 h ([2]; brain, ip, 40 mg/kg, i.p. 40 mg/kg, 2h, mean of Plasma 2h, Brain 2h rats, read-out: Brain/Plasma) was 0.0312. It also gave a concentration at 24 h ([2]; brain, ip, 40 mg/kg, i.p. 40 mg/kg, 24h, individual rat) of 609 nM, a concentration at 24 h ([2]; brain, ip, 40 mg/kg, i.p. 40 mg/kg, 24h, mean all rats) of 540 nM and a Kp at 24 h ([2]; brain, ip, 40 mg/kg, i.p. 40 mg/kg, 24h, mean all rats, read-out: Brain/Plasma) of 1.18. The concentration at 24 h ([2]; brain, ip, 40 mg/kg, i.p. 40 mg/kg, 24h, mean of RM Plasma + Brain 24h rats) was 540 nM, the Kp at 24 h ([2]; brain, ip, 40 mg/kg, i.p. 40 mg/kg, 24h, mean of RM Plasma + Brain 24h rats, read-out: Brain/Plasma) was 1.18 and the Kp at 2 h ([2]; brain, iv, 40 mg/kg, 40 mg/kg i.v., 2 hours, read-out: Brain/plasma concentration ratio) was 0.16 ± 0.03. For the same molecule, the Kp at 24 h ([2]; brain, iv, 40 mg/kg, 40 mg/kg i.v., 24 hours, read-out: Brain/plasma concentration ratio) was 9.17 ± 3.19, the concentration at 2 h ([2]; brain, iv, 40 mg/kg, i.v. 40 mg/kg, 2h, individual rat) was 2290 nM and the Kp at 2 h ([2]; brain, iv, 40 mg/kg, i.v. 40 mg/kg, 2h, individual rat, read-out: Brain/Plasma) was 0.15. The concentration at 2 h ([2]; brain, iv, 40 mg/kg, i.v. 40 mg/kg, 2h, mean all rats) was 2630 nM, the Kp at 2 h ([2]; brain, iv, 40 mg/kg, i.v. 40 mg/kg, 2h, mean all rats, read-out: Brain/Plasma) was 0.163 and the concentration at 2 h ([2]; brain, iv, 40 mg/kg, i.v. 40 mg/kg, 2h, mean of Plasma 2h, Brain 2h rats) was 2630 nM. For the same molecule, the Kp at 2 h ([2]; brain, iv, 40 mg/kg, i.v. 40 mg/kg, 2h, mean of Plasma 2h, Brain 2h rats, read-out: Brain/Plasma) was 0.163, the concentration at 24 h ([2]; brain, iv, 40 mg/kg, i.v. 40 mg/kg, 24h, mean all rats) was 1460 nM and the Kp at 24 h ([2]; brain, iv, 40 mg/kg, i.v. 40 mg/kg, 24h, mean all rats, read-out: Brain/Plasma) was 9.17. It also gave a concentration at 24 h ([2]; brain, iv, 40 mg/kg, i.v. 40 mg/kg, 24h, mean of RM Plasma + Brain 24h rats) of 1460 nM, a Kp at 24 h ([2]; brain, iv, 40 mg/kg, i.v. 40 mg/kg, 24h, mean of RM Plasma + Brain 24h rats, read-out: Brain/Plasma) of 9.17 and a Plasma concentration ([2]; i.p. 40 mg/kg, 15min, individual rat, 40 mg/kg) of 21815.2 nM. For the same molecule, the Plasma concentration ([2]; i.p. 40 mg/kg, 30min, individual rat, 40 mg/kg) was 20540.8 nM, the Brain/Plasma [2, 3] was 0.02 and 0.0252 and 0.05 and the Plasma concentration [2, 3] was 15033 nM and 14212.3 nM and 13650.7 nM and 17581.8 nM. The concentration at 2 h [2, 3] was 280.8 nM and 343.4 nM and 857.5 nM, the Plasma concentration ([2]; i.p. 40 mg/kg, 4h, individual rat, 40 mg/kg) was 6479.8 nM and the Plasma concentration ([2]; i.p. 40 mg/kg, 6h, individual rat, 40 mg/kg) was 1874.8 nM. For the same molecule, the Plasma concentration ([2]; i.p. 40 mg/kg, 8h, individual rat, 40 mg/kg) was 1974.2 nM, the Brain/Plasma [2, 4] was 1.60 and 0.76 and the Plasma concentration [2, 4] was 615.6 nM. For the same molecule, the concentration at 2 h [2, 4] was 470.9 nM, the “Plasma 2h/24h” value ([2]; i.p. 40 mg/kg, individual rat, 40 mg/kg) was 37.8409 and 24.4211 and the “Plasma 2h/24h” value ([2]; i.p. 40 mg/kg, mean all rats) was 31.1310. The “Plasma 2h/24h” value ([2]; i.p. 40 mg/kg, mean of RM Plasma + Brain 24h rats) was 31.1310, the Plasma concentration ([2]; i.v. 40 mg/kg, 5min, individual rat, 40 mg/kg) was 73005.3 nM and 87692.8 nM and the Plasma concentration ([2]; i.v. 40 mg/kg, 15min, individual rat, 40 mg/kg) was 49462.2 nM and 51406.1 nM. For the same molecule, the Plasma concentration ([2]; i.v. 40 mg/kg, 30min, individual rat, 40 mg/kg) was 35638.7 nM and 16847.4 nM and 33046.8 nM, the Plasma concentration ([2]; i.v. 40 mg/kg, 1h, individual rat, 40 mg/kg) was 23543.1 nM and 24623.1 nM and the Brain/Plasma [2, 5] was 0.22 and 0.12. The Plasma concentration [2, 5] was 15313.8 nM and 16653 nM and 15983.4 nM and 12333.1 nM and 12074 nM, the concentration at 2 h [2, 5] was 3671.9 nM and 1922.3 nM and the Plasma concentration ([2]; i.v. 40 mg/kg, 4h, individual rat, 40 mg/kg) was 4017.5 nM and 4341.4 nM.
